# Measurements: patent US9828344B2, “Inhibitors of the notch signaling pathway and secretion for use in medicine” (Leibniz-Institut für Altersforschung Fritz-Lipmann-Institut …, priority 2012, dated 2017)
# Legend:
# NotchΔE-EGFP = experiment: cells; assay type: cell-based
# Text: To identify novel regulatory factors involved in Notch trafficking/processing an image-based high content screen was set up. […] NotchΔE-EGFP is a direct substrate for γ-secretase at the PM, and under physiological conditions is proteolytically processed to NICD-EGFP that translocates into the nucleus (for scheme see FIG. 1b), resulting in a strong nuclear EGFP-staining in steady state^15 (FIG. 1d). […] Importantly, changes in subcellular localization of the reporter are amenable to quantitation by automated microscopy^15. Accordingly, reporter fluorescence was determined in the nucleus (nuc) and in a ring around the nucleus (enuc), and the ratio enuc/nuc was evaluated (schematized in FIG. 1c). Thereafter, the assay design was functionally validated. […] The assay also reliably detected trafficking defects in the secretory pathway. […] Taken together, the assay was validated for reliably detecting concentration and time dependent changes in trafficking and processing of the Notch reporter.
# Cells were seeded in 96-well plates at a density of 5000 cells/well in 100 μl medium. The next day, 100 μl medium containing the respective test compounds was added. Cells were incubated for 16 h, fixed and processed for automated microscopy. For the putative gamma-secretase inhibitors the enuc intensity was divided by the DAPT control and for the trafficking inhibitors normalized percentage inhibition against DAPT/DMSO controls of log 2 transformed nuc/enuc ratios were calculated. Relative activity values were read into “R” (http://www.r-project.org/) and EC50 estimates were calculated using four-parameter log-logistic fit with the package “drc”^51.
# Images were acquired on an ArrayScan VTi automated microscope (ThermoFisher) and numerical data were extracted with the Compartmental Analysis BioApplication of the bundled software suite. Compound screening raw data were collected at the FMP and data transformation was performed according to standard procedures (ref 17 and supp. Refs 6-7).
# endocytosis = experiment: Transferrin uptake assay; assay type: cell-based
# Protocol: FIG. 13: FLI-06 causes dispersal of early Golgi and TGN, but no tubulation of endosomes. Hela cells were incubated with DMSO or 10 iM FLI-06 or 1 ig/ml BFA for 18 h, fixed, stained with antibodies as indicated and imaged by fluorescence microscopy. Endosomes were visualized by adding Alexa555-labelled transferrin on ice and chasing for 15 min at 37° C. in the presence of indicated compounds. Arrows indicated tubulating endosomes, scalebar 10 im.
# For the transferrin uptake assay cells were starved in serum free medium for 1 h at 37° C. Cells were then transferred on ice and medium was exchanged to serum free medium supplemented with 25 μg/ml AlexaFluor555-Transferrin conjugate (Molecular Probes) and test compounds. After 15 min on ice cells were incubated with pre-warmed serum-supplemented medium containing test compounds and incubated at 37° C.
# VSVG-EGFP = assay type: cell-based
# COPII vesicles = experiment: In vitro COPII budding assay with permeabilized cells; assay type: biochemical; details: for budding of COPII vesicles after pretreatment of cells: cells pretreated with FLI-06 for 4 hours
smiles,measurement,setting,value
"CC1=C(C(=O)OC2CCCCC2)C(c2ccc([N+](=O)[O-])cc2)C2=C(CC(C)(C)CC2=O)N1 (centres unmarked) [FLI-06, Cyclohexyl 4-(4′-nitrophenyl)-2,7,7-trimethyl-5-oxo-1,4,5,6,7,8-hexahydroquinoline-3-carboxylate]",activity in NotchΔE-EGFP cells (enuc/nuc ratios),"NotchΔE-EGFP; SAR and prior-art comparison, FIG. 5a/5b",equally active as the initial screening hit
same,EC50,"NotchΔE-EGFP; assay not given, read-out: EC50 as secretion inhibitor",2300 nM
same,endocytosis of transferrin,endocytosis,did not affect endocytosis
same,recruitment of VSVG-EGFP to ERES,VSVG-EGFP,strongly reduced
same,velocity of action on ER export,VSVG-EGFP,acts instantaneously on ER export
same,budding of COPII vesicles after pretreatment of cells,COPII vesicles; 100 μM FLI-06 in reaction,strongly
same,budding of COPII vesicles after pretreatment of cells,COPII vesicles; no FLI-06 in reaction,slightly inhibited
same,"COPII budding reaction, compound added directly to the assay",COPII vesicles; no FLI-06 pretreatment of cells,did not inhibit the COPII budding reaction
